Measurements taken from ChEMBL document CHEMBL1201862, “PubChem BioAssay data set” (2004).
The source made the active and inactive calls.

Legend:
Coagulation factor XII [1] = biological target: T1, Coagulation factor XII (Homo sapiens, UniProt P00748); format: functional;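 also: activated factor XIIa alpha cleaving a fluorogenic AMC peptide substrate; inhibitor potency from loss of enzyme activity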
T1 sequence (P00748 whole entry): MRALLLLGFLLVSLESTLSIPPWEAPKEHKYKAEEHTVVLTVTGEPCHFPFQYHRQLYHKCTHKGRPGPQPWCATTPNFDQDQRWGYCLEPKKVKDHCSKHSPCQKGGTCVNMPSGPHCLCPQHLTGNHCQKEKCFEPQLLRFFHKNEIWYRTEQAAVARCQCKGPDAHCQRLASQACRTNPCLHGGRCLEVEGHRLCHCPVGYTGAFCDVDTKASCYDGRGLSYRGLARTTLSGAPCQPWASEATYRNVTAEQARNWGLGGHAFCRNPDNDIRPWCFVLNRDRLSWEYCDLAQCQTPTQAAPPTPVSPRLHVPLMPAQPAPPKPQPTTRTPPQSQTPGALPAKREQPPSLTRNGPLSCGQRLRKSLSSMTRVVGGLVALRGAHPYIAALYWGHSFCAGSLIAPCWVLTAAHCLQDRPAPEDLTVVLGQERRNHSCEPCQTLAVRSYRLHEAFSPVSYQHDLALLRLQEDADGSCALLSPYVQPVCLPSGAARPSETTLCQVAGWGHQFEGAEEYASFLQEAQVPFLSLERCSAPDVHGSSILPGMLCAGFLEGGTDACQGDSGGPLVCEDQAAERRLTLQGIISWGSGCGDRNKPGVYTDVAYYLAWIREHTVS

Coagulation factor XII [2] = biological target: T1, Coagulation factor XII; assay: activated coagulation factor XII inhibitor potency, concentration-effect curve, cell-free (AID 716); format: functional
[3] = biological target: T2, Sphingosine 1-phosphate receptor 4 (Homo sapiens, UniProt O95977); assay: Late-stage fluorescence dose response cell-based assay to identify agonists of the Sphingosine 1-Phosphate Receptor 4 (S1P4): purchased compounds EC50. [Related pubchem assays (depositor defined):AID1509, AID1523, AID1563, AID1686, AID1701, AID1801]; format: functional
T2 sequence (O95977 whole entry): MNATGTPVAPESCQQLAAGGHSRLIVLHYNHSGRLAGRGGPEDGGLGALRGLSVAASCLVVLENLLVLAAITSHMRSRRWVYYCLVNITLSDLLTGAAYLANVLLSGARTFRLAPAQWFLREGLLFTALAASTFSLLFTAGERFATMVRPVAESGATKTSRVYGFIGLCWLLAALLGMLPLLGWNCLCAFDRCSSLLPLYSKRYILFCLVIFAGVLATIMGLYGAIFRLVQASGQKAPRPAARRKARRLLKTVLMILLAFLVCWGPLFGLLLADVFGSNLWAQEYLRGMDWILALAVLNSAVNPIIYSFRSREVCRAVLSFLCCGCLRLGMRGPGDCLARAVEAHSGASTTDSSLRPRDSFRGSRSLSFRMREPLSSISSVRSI

[4] = THP-1 cell cytotoxicity, dose response, cytotoxicity control for non-replicating M. tuberculosis project (AID 489025); format: functional
[5] = HepG2 cell cytotoxicity, dose response, cytotoxicity control for non-replicating M. tuberculosis project (AID 489018); format: functional; details: Mycobacterium tuberculosis
[6] = biological target: T3, C-C chemokine receptor type 6 (Homo sapiens, UniProt P51684); assay: antagonism of CCR6 beta-arrestin recruitment – cell-based, luminescent beta-arrestin readout, dose response (AID 504728); format: functional
T3 sequence (P51684 whole entry): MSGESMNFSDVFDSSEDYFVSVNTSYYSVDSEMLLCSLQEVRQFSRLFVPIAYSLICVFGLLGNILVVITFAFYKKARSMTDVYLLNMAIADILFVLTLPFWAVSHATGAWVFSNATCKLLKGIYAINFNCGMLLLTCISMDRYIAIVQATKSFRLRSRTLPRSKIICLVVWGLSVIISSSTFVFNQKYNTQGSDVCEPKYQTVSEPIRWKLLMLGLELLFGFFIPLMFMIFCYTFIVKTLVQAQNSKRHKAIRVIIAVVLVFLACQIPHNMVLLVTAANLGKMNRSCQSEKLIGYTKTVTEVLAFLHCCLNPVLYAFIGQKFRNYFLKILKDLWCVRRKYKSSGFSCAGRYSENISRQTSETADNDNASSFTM

Beta-galactosidase = Beta-galactosidase (Escherichia coli, UniProt Q8VNN2); assay: detection-enzyme interference by beta-gal modulators – biochemical, E. coli enzyme, set 3, artefact control for CCR6 antagonist project, dose response (AID 504712); format: functional
[7] = Vero E6 cell cytotoxicity, dose response, cytotoxicity control for non-replicating M. tuberculosis project, secondary assay (AID 492998); format: functional, VeroE6; details: Vero C1008
cells = format: functional
INS1 = assay: INS-1E survival protection against cytokine death – cell-based, luminescence, retest, dose response (AID 449756); format: functional; details: Rattus norvegicus;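 also: cell death triggered by IL-1 beta plus TNF-alpha plus IFN-gamma mixture; protective hits raise ATP signal compared with cytokine alone wells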
[8] = biological target: T4, Short transient receptor potential channel 4 (Mus musculus, UniProt Q9QUQ5); assay: potentiation of DAMGO-evoked TRPC4 calcium signal – cell-based, HEK293 TRPC4/mu-opioid, Fluo-4 calcium, EC20 DAMGO, dose response (AID 434941); format: functional
T4 sequence (Q9QUQ5 whole entry): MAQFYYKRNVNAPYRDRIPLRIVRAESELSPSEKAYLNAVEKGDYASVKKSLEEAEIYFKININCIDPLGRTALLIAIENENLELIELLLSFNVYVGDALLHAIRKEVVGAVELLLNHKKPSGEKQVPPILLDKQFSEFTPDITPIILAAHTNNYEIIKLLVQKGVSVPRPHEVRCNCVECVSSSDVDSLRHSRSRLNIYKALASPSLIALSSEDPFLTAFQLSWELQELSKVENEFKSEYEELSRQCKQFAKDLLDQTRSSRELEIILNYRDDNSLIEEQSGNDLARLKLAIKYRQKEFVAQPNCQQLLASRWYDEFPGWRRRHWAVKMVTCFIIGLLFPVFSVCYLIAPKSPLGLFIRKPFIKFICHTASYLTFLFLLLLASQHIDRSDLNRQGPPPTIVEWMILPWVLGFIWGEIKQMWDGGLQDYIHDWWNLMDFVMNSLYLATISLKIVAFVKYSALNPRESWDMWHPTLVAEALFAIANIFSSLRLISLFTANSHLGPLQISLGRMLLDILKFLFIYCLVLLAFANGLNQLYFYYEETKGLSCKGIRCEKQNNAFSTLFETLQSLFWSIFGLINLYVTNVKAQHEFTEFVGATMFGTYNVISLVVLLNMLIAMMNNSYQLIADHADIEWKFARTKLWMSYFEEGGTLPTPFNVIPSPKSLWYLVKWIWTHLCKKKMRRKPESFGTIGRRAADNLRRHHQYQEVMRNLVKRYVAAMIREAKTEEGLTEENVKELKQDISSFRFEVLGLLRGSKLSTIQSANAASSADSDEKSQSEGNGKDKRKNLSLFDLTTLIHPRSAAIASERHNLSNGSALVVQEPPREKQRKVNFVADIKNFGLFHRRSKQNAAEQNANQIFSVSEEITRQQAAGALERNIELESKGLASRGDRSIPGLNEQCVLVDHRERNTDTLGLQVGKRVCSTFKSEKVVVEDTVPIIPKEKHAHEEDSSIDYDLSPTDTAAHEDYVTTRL

Cytochrome P450 2D6 = Cytochrome P450 2D6 (Homo sapiens, UniProt P10635);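 also: CYP2D6 member of a cytochrome P450 panel assay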
Cytochrome P450 2C9 = Cytochrome P450 2C9 (Homo sapiens, UniProt P11712)
Chain of Cytochrome P450 2C9 (P11712 whole entry): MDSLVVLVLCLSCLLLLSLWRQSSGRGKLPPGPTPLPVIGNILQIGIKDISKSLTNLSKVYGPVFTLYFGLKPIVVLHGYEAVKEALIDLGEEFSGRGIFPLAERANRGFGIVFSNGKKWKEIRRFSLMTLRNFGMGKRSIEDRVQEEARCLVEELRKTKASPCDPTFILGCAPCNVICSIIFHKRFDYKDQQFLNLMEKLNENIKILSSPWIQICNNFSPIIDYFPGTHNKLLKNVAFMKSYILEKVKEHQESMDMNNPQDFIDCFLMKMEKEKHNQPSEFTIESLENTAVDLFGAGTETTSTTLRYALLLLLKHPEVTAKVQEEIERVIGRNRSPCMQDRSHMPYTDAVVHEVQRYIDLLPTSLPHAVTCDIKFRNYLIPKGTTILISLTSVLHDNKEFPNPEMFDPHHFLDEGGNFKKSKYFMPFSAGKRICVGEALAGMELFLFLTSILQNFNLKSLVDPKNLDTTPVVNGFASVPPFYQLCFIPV

Chain of Cytochrome P450 2D6 (P10635 whole entry): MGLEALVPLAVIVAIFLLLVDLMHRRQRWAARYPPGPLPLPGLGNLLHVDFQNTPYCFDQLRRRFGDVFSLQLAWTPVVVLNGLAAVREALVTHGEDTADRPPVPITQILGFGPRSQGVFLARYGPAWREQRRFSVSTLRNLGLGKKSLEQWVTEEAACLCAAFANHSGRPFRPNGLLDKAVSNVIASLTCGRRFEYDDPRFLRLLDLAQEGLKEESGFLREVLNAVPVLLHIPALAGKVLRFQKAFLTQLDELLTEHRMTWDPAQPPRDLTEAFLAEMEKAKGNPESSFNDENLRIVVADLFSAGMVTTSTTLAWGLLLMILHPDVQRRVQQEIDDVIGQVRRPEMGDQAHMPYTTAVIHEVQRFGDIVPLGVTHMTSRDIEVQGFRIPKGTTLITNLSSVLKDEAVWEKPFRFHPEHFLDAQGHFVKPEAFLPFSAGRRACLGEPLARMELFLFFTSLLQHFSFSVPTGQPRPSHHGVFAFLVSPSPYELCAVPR
Chain of Beta-galactosidase (Q8VNN2 whole entry): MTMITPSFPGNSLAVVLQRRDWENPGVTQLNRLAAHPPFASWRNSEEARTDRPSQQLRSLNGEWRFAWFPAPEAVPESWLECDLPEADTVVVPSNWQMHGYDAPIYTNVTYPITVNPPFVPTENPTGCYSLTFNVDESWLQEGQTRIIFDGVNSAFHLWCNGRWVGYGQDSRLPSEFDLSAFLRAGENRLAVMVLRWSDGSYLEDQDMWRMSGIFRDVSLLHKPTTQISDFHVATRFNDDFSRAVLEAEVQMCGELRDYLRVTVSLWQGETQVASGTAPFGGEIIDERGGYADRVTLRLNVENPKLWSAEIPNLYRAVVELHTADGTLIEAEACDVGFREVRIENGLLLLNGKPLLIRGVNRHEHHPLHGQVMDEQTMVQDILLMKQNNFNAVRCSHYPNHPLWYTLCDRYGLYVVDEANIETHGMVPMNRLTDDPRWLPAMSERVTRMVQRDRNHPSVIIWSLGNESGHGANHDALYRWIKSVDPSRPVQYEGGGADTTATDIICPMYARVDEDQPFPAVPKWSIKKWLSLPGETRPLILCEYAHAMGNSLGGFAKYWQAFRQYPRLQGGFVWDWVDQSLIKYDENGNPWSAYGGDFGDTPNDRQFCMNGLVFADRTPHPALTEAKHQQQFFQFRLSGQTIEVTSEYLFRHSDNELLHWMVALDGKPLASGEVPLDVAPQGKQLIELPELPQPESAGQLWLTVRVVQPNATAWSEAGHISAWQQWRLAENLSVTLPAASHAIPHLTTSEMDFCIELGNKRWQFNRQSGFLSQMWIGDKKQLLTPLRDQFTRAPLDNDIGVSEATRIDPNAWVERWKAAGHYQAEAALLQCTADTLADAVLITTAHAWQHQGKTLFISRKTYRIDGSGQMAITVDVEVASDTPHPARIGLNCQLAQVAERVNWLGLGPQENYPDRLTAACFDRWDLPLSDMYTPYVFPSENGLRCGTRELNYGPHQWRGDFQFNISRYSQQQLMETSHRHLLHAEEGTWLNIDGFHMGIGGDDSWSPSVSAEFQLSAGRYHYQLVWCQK

CC(=O)N1CCc2c(sc(NC(=O)C3CC3)c2-c2nc3ccccc3s2)C1
IC50 (Coagulation factor XII [1]): 25.7 µM (active)

Cc1cc(N2CCCC2=O)cc(C)c1S(=O)(=O)NCCOc1ccccc1
IC50 (Coagulation factor XII [2]): > 50 µM (inactive)

Cc1nn(CC(C)C)c(Cl)c1C(=O)OC(C)C(=O)Nc1ccccc1 (centres undefined)
EC50 [3]: > 50 µM (inactive)

Cc1cc(N/N=C/c2ccc(F)cc2)nc(-n2nc(C)cc2C)n1
CC50 [4]: 10.8 µM (active)
CC50 [5]: > 20 µM (active)
IC50 [6]: > 66.6 µM (inactive)
IC50 (Beta-galactosidase): > 66.6 µM (inactive)
CC50 [7]: 15.6 µM (active)
IC50 (cells): < 0.1 µM (active)
AC50 (INS1): 2.81 µM (active)

Cc1ccc(/C=N/NC(=O)NC2CCCCC2)o1
EC50 [8]: 3.35 µM (active)

COc1ccc2[nH]cc(CCN(C)C)c2c1 [MEBUFOTENIN]
EC50 [8]: 0.67 µM (active)
AC50 (Cytochrome P450 2D6): 20 µM (inconclusive)
AC50 (Cytochrome P450 2C9): inconclusive
